The source of these data is patent publication US5834435A, “Inhibition of TNF-α pleiotropic and cytotoxic effects” (priority 1996, dated 1998).

Data set [1] deals with E6/1.2 anti-GMDP monoclonal antibody. The experiment in a line: Antibody capture assay with antigen competition variation. The format is binding, mouse. Conditions: 1 μg/well and 0.1 μg/well GMDP-Lys-PAA; FIGS. 1A,B and 2. The source says:
Antibody capture assay (Antibodies: A laboratory Manual (E. Harlow and D. Lane, eds.), Cold Spring Harbor Laboratory, 1988) with antigen competition variation has been used to detect GMDP in human […]. Highly specific mouse E6/1.2 anti-GMDP monoclonal antibody (Ka=2×10^9 M^-1) and GMDP conjugated to polyacrylamide backbone through amino group of lysine (GMDP-Lys-PAA) were obtained from Dr. Nesmeyanov, the Shemyakin and Ovchinnikov Institute of Bioorganic Chemistry, Russian Academy of Sciences, Moscow, Russia.
Briefly, GMDP-Lys-PAA or serial dilutions of human female milk in phosphate buffered saline (PBS) were adsorbed onto wells of microtiter plates for several hours. After washing with PBS, remaining binding sites were blocked by 1 h incubations with 200 μl PBS+3% bovine serum albumin (BSA). After washing with PBS 100 μl of E6/1.2 antibody, diluted 1:1,000 or 1:2,000 with PBS+1% BSA, were added. The incubation was carried out for 1 h at room temperature. […] Optical density at 492 nm was measured.
Two different amounts of GMDP-Lys-PAA in PBS were adsorbed onto wells of microtiter plates (1 μg/well and 0.1 μg/well). […] Inhibition index (I,%) was calculated from: I=(1-Ao/A1)×100, where Ao and A1 are optical densities of samples without or with inhibitor, respectively.

Data set [2] has as its system patients with terminate stage of cancer. The source says:
Results were expressed as percentage change in both triglycerides and cholesterol level from pretreatment values.

Data set [3] concerns isolated cardiac myocytes. The experiment in a line: Effects of TNF-α on contractivity of adult cardiac myocytes (cell shortening, video edge detection). The format is cell-based, human. Here is the method: Myocardial samples were obtained from organ donors, whose hearts were initially considered for cardiac transplantation but were subsequently deemed unsuitable for transplantation because of blood type or size incompatibility. Freshly isolated myocytes were treated for 60 minutes at 37° C. with single concentration of GMDP (5 μg/ml). Control cells were treated with single concentration of recombinant human TNF-α (Genzyme) that is known to produce negative inotropic effects in isolated cardiac myocytes (200 μ/ml). Cell motion was characterized with video edge detection as previously described in detail (17). Results were expressed as percentage change in cell length from resting values.

Data set [4] concerns patients with terminate stage of cancer. The source says: 27 patients with terminate stage of cancer participated in this study. The study group consisted of 19 females and 8 males between 14 and 59 years of age. 3 of them have had malignant brain tumors glioblastoma multiforme, 9 patients had breast carcinoma with massive metastasis to the liver or brain, one patient had intermediate stage lymphoma, one of them had stomach cancer with liver metastasis, three patients had hepatomas with lung metastasis, and two of them pancreatic cancer with liver metastasis.
19 patients were given GMDP orally at dosage of 50 mg daily as a water solution for fourteen days. 8 patients received a placebo.
Results were expressed as percentage change in LDH activity from pretreatment values.
The source holds these as a separate data set.

The subject of data set [5] is isolated cardiac myocytes. The data set can be described thus: Intracellular fluorescence brightness in isolated cardiac myocytes. It counts as cell-based. Conditions: 200 μ/ml TNF-α; n=45 cells/group; FIG. 7 insert. An excerpt:
As shown, the peak level of intracellular fluorescence brightness was reduced strikingly for the cells treated with 200 μ/ml TNF-α.

With `CC(=O)NC1C(OC2C(CO)OC(O)C(NC(C)=O)C2OC(C)C(=O)NC(C)C(=O)NC(CCC(=O)O)C(N)=O)OC(CO)C(O)C1O` [GMDP, N-acetyl-D-glucosaminyl-(β1-4)-N-acetylmuramyl-L-alanyl-D-isoglutamine], in data set [1], the “inhibition of E6/1.2 antibody interaction with the adsorbed GMDP-Lys-PAA” value is “inhibition”. Moreover, the “reduction of elevated cholesterol level (percentage change from pretreatment values)” value in data set [2] (patient treated with GMDP, FIG. 10) is reported as 51%. Further, the “decreasing for triglycerides concentration (percentage change from pretreatment values)” value in data set [2] (treated patients with elevated triglycerides, FIG. 9) stood at 82%. The “negative inotropic effects of TNF-α in isolated cardiac myocytes” value in data set [3] (FIGS. 6 and 7 taken together) is “inhibits”. In addition, in data set [3] (GMDP 5 μg/ml, 60 minutes at 37° C., 200 μ/ml TNF alfa, FIG. 6), the “effects of TNF alfa on cell shortening after pretreatment” value was “completely attenuated”. Further, the “overall clinical condition during the follow up period” value in data set [4] (all patients treated with GMDP) is recorded as “improved”. Further, the side effects result in data set [4] (orally 50 mg daily as water solution for fourteen days) is listed as “None”. The “decreasing of LDH activity (percentage change from pretreatment values)” value in data set [4] (orally 50 mg daily, fourteen days, lowest level at the fourteenth day, FIG. 8) was determined as 68%. Besides, the “nausea and vomiting subsided” value in data set [4] (patients who had these symptoms of tumor toxicity before treatment) was determined as 7 patients.
As for TNF-α [reference compound], the cell shortening entry in data set [3] (cells treated with TNF-α vs control, n=40 cells/group, FIG. 6) was “concentration-dependent decrease”. In addition, the “decrease in the percent change in peak intensity of fluorescence brightness” value in data set [5] is listed as ~ 38%.
